In brackets after ≈: the same amount, converted by molar mass.
Experiments:
[1] = Solubility of the compound in PBS buffer at pH 7.4 after 24 hrs by LC-MS analysis; assay type: physicochemical
[2] = in vitro; conditions: CD-1, mouse, liver microsomes

solubility at 24 h [1] [µg/mL]	half-life at 1 µM [2] [min]	Structure (SMILES)
40 (≈ 113 µM)	–	O=C(CCC(F)(F)F)N1CCC(c2nc(-c3ccccc3)no2)CC1
300 (≈ 832 µM)	34	O=C(CCC(F)(F)F)N1CCC(c2nc(-c3nccs3)no2)CC1
–	81	O=C(CCCC(F)(F)F)N1CCC(c2nc(-c3nccs3)no2)CC1
–	5	O=C(CCC(F)(F)F)N1CCC(c2nc(-c3cccs3)no2)CC1
6 (≈ 13.6 µM)	6	COc1ccc2nc(-c3noc(C4CCN(C(=O)CCC(F)(F)F)CC4)n3)sc2c1

From ChEMBL document CHEMBL1944547, “Ethionamide boosters. 2. Combining bioisosteric replacement and structure-based drug design to solve pharmacokinetic issues in a series of potent 1,2,4-oxadiazole EthR inhibitors” (J Med Chem, 2012)
